Measured values from patent US12152012B2, “BRAG2 inhibitors and applications thereof” (CENTRE NATIONAL DE LA RECHERCHE SCIENTIFIQUE, priority 2018, dated 2024).

Assays:
yeast ArfGEF Sec7p = biological target: T1, yeast ArfGEF Sec7p (Saccharomyces cerevisiae, UniProt P11075); experiment: Yeast chemogenomic screen; type: cell-based
T1 construct: endogenous in cells; host or cells: yeast

Sec7 domain of BRAG2 = biological target: T2, Sec7 domain of BRAG2 (Homo sapiens, UniProt Q6DN90); experiment: Nucleotide exchange fluorescence kinetics in solution, Sec7 domain with truncated Arf1; type: biochemical; conditions: 50 μM, no membranes
T2 construct: human BRAG2^Sec7 (390-594) and BRAG2^Sec7PH (390-811); made in house
Experimental: (§1) The effect of Bragsin1 on the GEF efficiency of representative human ArfGEFs was evaluated by fluorescence kinetics using highly purified recombinant Arf GTPases and ArfGEFs. In a first series of assays, the Sec7 domains of BIG1, a Golgi ArfGEF, and of ARNO, EFA6a and BRAG2, which function at the plasma membrane, were used. When tested in solution, Bragsin1 had no effect on the activation of Arf1 by any of these Sec7 domains (FIGS. 2a and 14). Separately, we reconstituted the activation of myristoylated Arf1 by the same ArfGEFs on liposomes using ArfGEF constructs that contain a membrane-binding domain (DCB-HUS domain for BIG1, PH domains for the other GEFs). […] BRAG2 activates several Arf isoforms, including the plasma membrane-located Arf6 isoform. […] Bragsin1 and Bragsin2 have the same IC50 towards BRAG2 ([…]) according to dose-response analysis, confirming that Bragsin1 and Bragsin2 can be used interchangeably (FIG. 2d). The specific inhibition of BRAG2 by Bragsin in vitro predicts that BRAG2 silencing by siRNA should yield the same phenotype as treatment by the small molecule. Silencing of BRAG2 induced the redistribution of TGN46 into tubular or punctate structures, which phenocopied the effects induced by Bragsin (FIGS. 2e, 17 and 18). […] Silencing of ARNO, which is located at the plasma membrane, had no effect on TGN46 distribution. Overexpression of BRAG2-mCherry rescued the dispersion of the TGN46 structure induced by Bragsin, which is consistent with the silencing experiments (FIG. 2f). Bragsin is a specific inhibitor of the ArfGEF BRAG2 in vitro and in cells according to these experiments. These oexperiments identify a mechanism of inhibition that requires the membrane to manifests itself. […]
(§2) Nucleotide exchange kinetics were monitored by tryptophan fluorescence with excitation/emission wavelengths of 292/340 nm using a Cary Eclipse fluorimeter (Varian) at 37° C. and under continuous stirring as described in ^50,51. For specificity assays, 50 μM of Bragsin1 or 0.25% DMSO were incubated for 2 min at 37° C. in HKM buffer (50 mM HEPES pH 7.4, 120 mM potassium acetate, 1 mM MgCl2 and 1 mM DTT) with either 1 μM of N-terminally truncated Arf-GDP and 100 nM of indicated Sec7 domain (in solution) or 0.4 μM of ^myrArf1 in the presence of 100 μM of liposomes and 2 to 100 nM of ArfGEFs as described in (Benabdi, S. et al. Biochemistry 56, 5125-5133 (2017) and Peurois, F. et al. Biochem J 474, 1259-1272 (2017). Nucleotide exchange rates (kobs) were determined from monoexponential fits and means are given as the percentage of control activity±SD. […]

Sec7 domain of ARNO = biological target: T3, Sec7 domain of ARNO (Homo sapiens, UniProt Q99418); experiment: as above; type: biochemical; conditions: 50 μM, no membranes
T3 construct: ARNO^Sec7 (50-256), BIG1^Sec7 (691-889); made in house
T3 sequence (Q99418 50-256): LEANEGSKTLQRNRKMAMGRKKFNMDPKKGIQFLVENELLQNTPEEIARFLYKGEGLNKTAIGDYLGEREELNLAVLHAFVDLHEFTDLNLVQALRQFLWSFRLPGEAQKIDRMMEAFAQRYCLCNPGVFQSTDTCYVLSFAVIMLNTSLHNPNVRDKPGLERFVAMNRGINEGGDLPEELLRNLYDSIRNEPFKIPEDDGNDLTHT
Experimental: as §1, §2

Sec7 domain of EFA6a = biological target: T4, Sec7 domain of EFA6a (Homo sapiens, UniProt A5PKW4); experiment: as above; type: biochemical; conditions: 50 μM, no membranes
T4 construct: human EFA6^Sec7 (527-727) and EFA6^Sec7PHCt (527-1024); made in house
Experimental: as §1, §2

Sec7 domain of BIG1 = biological target: T5, Sec7 domain of BIG1 (Homo sapiens, UniProt Q9Y6D6); experiment: as above; type: biochemical; conditions: 50 μM, no membranes
T5 construct: BIG1^Sec7 (691-889), BIG1^DcbHusSec7 (2-888); made in house
T5 sequence (Q9Y6D6 691-889): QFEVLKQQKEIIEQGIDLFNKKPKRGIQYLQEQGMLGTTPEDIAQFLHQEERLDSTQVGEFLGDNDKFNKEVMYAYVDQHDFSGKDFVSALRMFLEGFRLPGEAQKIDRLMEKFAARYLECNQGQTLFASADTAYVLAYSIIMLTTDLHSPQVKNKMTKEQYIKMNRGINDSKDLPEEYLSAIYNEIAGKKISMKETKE
Experimental: as §1, §2

T2 sequence (Q6DN90 512-716): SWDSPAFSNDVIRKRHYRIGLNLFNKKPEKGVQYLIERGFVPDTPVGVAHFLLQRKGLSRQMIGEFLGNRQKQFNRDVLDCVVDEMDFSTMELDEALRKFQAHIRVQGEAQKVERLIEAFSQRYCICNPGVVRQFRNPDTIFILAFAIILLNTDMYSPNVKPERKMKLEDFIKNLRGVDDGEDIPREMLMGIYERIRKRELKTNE
T1 sequence (P11075 whole entry): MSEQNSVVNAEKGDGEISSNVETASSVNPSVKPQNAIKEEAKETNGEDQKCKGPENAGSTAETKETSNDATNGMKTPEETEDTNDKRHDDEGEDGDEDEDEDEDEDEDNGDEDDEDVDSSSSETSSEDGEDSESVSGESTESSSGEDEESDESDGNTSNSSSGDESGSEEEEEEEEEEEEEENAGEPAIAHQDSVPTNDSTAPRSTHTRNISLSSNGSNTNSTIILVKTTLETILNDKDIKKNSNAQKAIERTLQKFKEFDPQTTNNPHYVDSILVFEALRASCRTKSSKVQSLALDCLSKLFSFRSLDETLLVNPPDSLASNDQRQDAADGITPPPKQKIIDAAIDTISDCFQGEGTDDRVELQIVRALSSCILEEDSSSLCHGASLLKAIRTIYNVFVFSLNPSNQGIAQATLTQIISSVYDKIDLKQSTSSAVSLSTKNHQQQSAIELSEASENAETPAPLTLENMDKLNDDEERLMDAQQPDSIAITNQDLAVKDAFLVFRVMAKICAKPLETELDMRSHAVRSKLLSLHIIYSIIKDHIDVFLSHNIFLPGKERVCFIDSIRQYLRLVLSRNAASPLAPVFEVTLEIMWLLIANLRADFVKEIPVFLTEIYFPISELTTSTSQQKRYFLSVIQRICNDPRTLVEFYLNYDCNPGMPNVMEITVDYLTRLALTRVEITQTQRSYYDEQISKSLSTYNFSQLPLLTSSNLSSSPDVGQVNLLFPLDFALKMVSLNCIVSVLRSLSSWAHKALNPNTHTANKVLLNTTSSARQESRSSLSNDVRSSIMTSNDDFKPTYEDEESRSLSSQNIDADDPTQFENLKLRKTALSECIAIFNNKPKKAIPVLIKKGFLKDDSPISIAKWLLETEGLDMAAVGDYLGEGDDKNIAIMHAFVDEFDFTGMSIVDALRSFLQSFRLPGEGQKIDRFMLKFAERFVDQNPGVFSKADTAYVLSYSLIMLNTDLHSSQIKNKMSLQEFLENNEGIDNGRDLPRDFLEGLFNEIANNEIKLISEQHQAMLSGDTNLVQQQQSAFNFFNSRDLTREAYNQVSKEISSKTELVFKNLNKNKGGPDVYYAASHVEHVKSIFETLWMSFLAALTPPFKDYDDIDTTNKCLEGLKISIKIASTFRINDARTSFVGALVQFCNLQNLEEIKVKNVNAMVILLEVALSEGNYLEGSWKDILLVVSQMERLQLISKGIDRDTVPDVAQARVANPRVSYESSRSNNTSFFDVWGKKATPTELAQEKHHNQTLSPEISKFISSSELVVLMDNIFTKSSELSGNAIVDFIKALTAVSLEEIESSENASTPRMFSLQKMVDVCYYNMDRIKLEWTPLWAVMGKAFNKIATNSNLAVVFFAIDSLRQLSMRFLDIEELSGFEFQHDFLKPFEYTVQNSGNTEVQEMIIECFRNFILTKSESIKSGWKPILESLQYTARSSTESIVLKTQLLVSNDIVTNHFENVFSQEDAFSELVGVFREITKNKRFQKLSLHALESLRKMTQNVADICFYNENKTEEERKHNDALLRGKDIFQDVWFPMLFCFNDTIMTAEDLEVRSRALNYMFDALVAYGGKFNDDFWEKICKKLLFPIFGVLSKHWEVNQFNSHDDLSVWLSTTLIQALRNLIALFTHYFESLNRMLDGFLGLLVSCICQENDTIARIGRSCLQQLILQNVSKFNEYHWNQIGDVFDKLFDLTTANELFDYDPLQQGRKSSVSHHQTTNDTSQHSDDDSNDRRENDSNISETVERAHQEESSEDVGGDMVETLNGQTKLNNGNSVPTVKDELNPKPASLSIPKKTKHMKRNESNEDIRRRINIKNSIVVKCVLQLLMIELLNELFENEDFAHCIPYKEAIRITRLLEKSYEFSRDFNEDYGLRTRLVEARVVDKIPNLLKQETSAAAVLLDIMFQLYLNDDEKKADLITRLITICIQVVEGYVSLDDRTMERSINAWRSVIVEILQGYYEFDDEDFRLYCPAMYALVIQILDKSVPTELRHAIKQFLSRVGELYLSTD
T4 sequence (A5PKW4 527-727): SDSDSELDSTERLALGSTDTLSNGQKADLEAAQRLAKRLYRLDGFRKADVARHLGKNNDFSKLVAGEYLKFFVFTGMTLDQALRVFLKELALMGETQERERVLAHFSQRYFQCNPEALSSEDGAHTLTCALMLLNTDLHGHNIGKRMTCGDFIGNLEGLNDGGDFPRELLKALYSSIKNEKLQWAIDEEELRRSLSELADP

Cc1ccc2oc(C(F)(F)F)cc(=O)c2c1[N+](=O)[O-] [Bragsin1, 6-methyl-5-nitro-2-(trifluoromethyl)-4H-chromen-4-one]
Effect on function of yeast ArfGEF Sec7p (yeast ArfGEF Sec7p): perturbs the function | Effect on activation of Arf1 by Sec7 domain in solution (Sec7 domain of BRAG2): no effect | Effect on activation of Arf1 by Sec7 domain in solution (Sec7 domain of ARNO): no effect | Effect on activation of Arf1 by Sec7 domain in solution (Sec7 domain of EFA6a): no effect | Effect on activation of Arf1 by Sec7 domain in solution (Sec7 domain of BIG1): no effect
